# Molecular target: cholesterol biosynthesis (crude enzyme extracted from rat liver)
# Experiment: inhibition of cholesterol biosynthesis by crude enzyme extracted from rat liver (radioactive acetic acid, 37° C., 60 minutes; cholesterol precipitated with digitonin, radioactivity measured)
# Format: biochemical
# Experimental: Crude enzyme extracted from rat liver was reacted with radioactive acetic acid at 37° C. for 60 minutes. The radioactive cholesterol thus biosynthesized was saponified and precipitated with digitonin, and the radioactivity was measured to determine the amount of cholesterol produced. The reaction was repeated, by adding one of the compounds of the invention listed in the following Table at the beginning of the reaction, and the amount of cholesterol biosynthesized was again determined, to give a quantitative measurement of the inhibitory effect of the compounds of the invention. The concentrations (μg/ml) of the compounds of the invention and of a known compound (clofibrate) which gave approximately 50% inhibition of cholesterol biosynthesis re reported in the following Table as I50 values [see Bricker et al, The Journal of Biological Chemistry, 247, 4914 (1972)]. The compounds of the invention are identified in the following Table by the numbers heretofore assigned to them.
row,SMILES,I50 (concentration which gave approximately 50% inhibition of cholesterol biosynthesis) [µg/mL]
1,"CCOC(=O)C(C)(C)Oc1ccc(Cl)cc1 [Clofibrate, clofibrate, reference compound]",250 to 300
2,"CCOC(=O)CC(O)CC(O)CCc1ccccc1 (centres unmarked) [Compound 1, Ethyl 3,5-dihydroxy-7-phenylheptanoate]",3.7
3,"CCOC(=O)CC(O)CC(O)CCc1ccc(Cl)cc1 (centres unmarked) [Compound 2, Ethyl 7-p-chlorophenyl-3,5-dihydroxyheptanoate]",17.2
4,"CCOC(=O)CC(O)CC(O)CCc1c(C)ccc2c1CCCC2 (centres unmarked) [Compound 5, Ethyl 3,5-dihydroxy-7-(2-methyl-5,6,7,8-tetrahydro-1-naphthyl)heptanoate]",1.56
5,"CCOC(=O)CC(O)CC(O)C=Cc1ccccc1 (centres unmarked) [Compound 8, Ethyl 3,5-dihydroxy-7-phenylhept-6-enoate]",9.0
6,"CCOC(=O)CC(O)CC(O)C(C)Oc1ccccc1 (centres unmarked) [Compound 9, Ethyl 3,5-dihydroxy-6-phenoxyheptanoate]",23 to 50
7,"CCOC(=O)CC(O)CC(O)COc1ccccc1Cl (centres unmarked) [Compound 10, Ethyl 6-(o-chlorophenoxy)-3,5-dihydroxyhexanoate]",5 to 15.2

# Other lines, results leading:
row,I50 (concentration which gave approximately 50% inhibition of cholesterol biosynthesis) [µg/mL],SMILES
1,5.0,"CCOC(=O)CC(O)CC(O)CCc1cccc2ccccc12 (centres unmarked) [Compound 3, Ethyl 3,5-dihydroxy-7-(1-naphthyl)heptanoate]"
2,0.24,"CCOC(=O)CC(O)CC(O)CCc1c(C)ccc2ccccc12 (centres unmarked) [Compound 4, Ethyl 3,5-dihydroxy-7-(2-methyl-1-naphthyl)heptanoate]"
3,3.4,"CCOC(=O)CC(O)CC(O)CCCc1cccc2ccccc12 (centres unmarked) [Compound 6, Ethyl 3,5-dihydroxy-8-(1-naphthyl)octanoate]"
4,1.2,"CCOC(=O)CC(O)CC(O)CCCc1c(C)ccc2ccccc12 (centres unmarked) [Compound 7, Ethyl 3,5-dihydroxy-8-(2-methyl-1-naphthyl)octanoate]"
